Data: PubChem BioAssay AID330 (DTP/NCI, 2004)
Values joined by “and” are separate entries in the source; they are usually repeats but may differ in a detail not shown here. Equal entries are not always repeated. Toxic doses and inconclusive results are not listed. How the source made its calls: active means survival T/C of 150% or more; inactive means T/C below 125% in these data.

System: P388 leukemia ip, CD2F1 mice, survival T/C
Test: NCI In Vivo Anticancer Drug Screen. Data for tumor model P388 Leukemia (intraperitoneal) in CD2F1 (CDF1) mice
Conditions: endpoint: median survival time, higher = longer survival
Summary of the method: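 Mice carrying the transplanted tumor received test compound or vehicle. Survival was recorded in each group, and the value is the treated-group measurement divided by that of the vehicle-treated control group.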

[1] = dose: 60.0 mg/kg/injection, schedule: Q01DX005 (ip), vehicle: Klucel (hydroxypropylcellulose) (HPC)
[2] = dose: 120.0 mg/kg/injection, schedule: Q01DX005 (ip), vehicle: Klucel (hydroxypropylcellulose) (HPC)
[3] = dose: 240.0 mg/kg/injection, schedule: Q01DX005 (ip), vehicle: Klucel (hydroxypropylcellulose) (HPC)
[4] = dose: 60.0 mg/kg/injection, schedule: Q01DX005 (ip), vehicle: saline with Tween-80
[5] = dose: 120.0 mg/kg/injection, schedule: Q01DX005 (ip), vehicle: saline with Tween-80
[6] = dose: 50.0 mg/kg/injection, schedule: Q01DX005 (ip), vehicle: Klucel (hydroxypropylcellulose) (HPC)
[7] = dose: 100.0 mg/kg/injection, schedule: Q01DX005 (ip), vehicle: Klucel (hydroxypropylcellulose) (HPC)
[8] = dose: 200.0 mg/kg/injection, schedule: Q01DX005 (ip), vehicle: Klucel (hydroxypropylcellulose) (HPC)
[9] = dose: 25.0 mg/kg/injection, schedule: Q01DX009 (ip), vehicle: other
[10] = dose: 50.0 mg/kg/injection, schedule: Q01DX009 (ip), vehicle: saline with Tween-80
[11] = dose: 100.0 mg/kg/injection, schedule: Q01DX009 (ip), vehicle: saline with Tween-80
[12] = dose: 100.0 mg/kg/injection, schedule: Q04DX003 (ip), vehicle: saline with Tween-80
[13] = dose: 200.0 mg/kg/injection, schedule: Q04DX003 (ip), vehicle: saline with Tween-80
[14] = dose: 400.0 mg/kg/injection, schedule: Q04DX003 (ip), vehicle: saline with Tween-80
[15] = dose: 50.0 mg/kg/injection, schedule: Q01DX009 (ip), vehicle: Klucel (hydroxypropylcellulose) (HPC)
[16] = dose: 100.0 mg/kg/injection, schedule: Q01DX009 (ip), vehicle: Klucel (hydroxypropylcellulose) (HPC)
[17] = dose: 200.0 mg/kg/injection, schedule: Q01DX009 (ip), vehicle: Klucel (hydroxypropylcellulose) (HPC)
[18] = dose: 25.0 mg/kg/injection, schedule: Q01DX009 (ip), vehicle: saline with Tween-80
[19] = dose: 200.0 mg/kg/injection, schedule: Q01DX009 (ip), vehicle: other

Measured: T/C

Oc1nc2nc[nH]n2c1N=Nc1ccccc1
inactive: [1] 115 % of control | [2] 98 % of control | [3] 92 % of control

Clc1cc2nc3[nH]c4ccccc4c3nc2cc1Cl
inactive: dose: 15.0 mg/kg/injection, schedule: Q01DX005 (ip), vehicle: Klucel (hydroxypropylcellulose) (HPC) 93 % of control | dose: 30.0 mg/kg/injection, schedule: Q01DX005 (ip), vehicle: Klucel (hydroxypropylcellulose) (HPC) 101 % of control | [1] 93 % of control and 98 % of control | [2] 97 % of control

NCCn1[nH]c(=O)c2ccncc2c1=O
inactive: dose: 100.0 mg/kg/injection, schedule: Q04DX002 (ip), vehicle: saline with Tween-80 94 % of control | dose: 200.0 mg/kg/injection, schedule: Q04DX002 (ip), vehicle: saline with Tween-80 92 % of control | dose: 400.0 mg/kg/injection, schedule: Q04DX002 (ip), vehicle: saline with Tween-80 92 % of control

CCCCCCCCCc1cccc(N2C(N)=NC(N)=NC2(C)C)c1
inactive: dose: 7.5 mg/kg/injection, schedule: Q01DX005 (ip), vehicle: saline with Tween-80 106 % of control

Brc1ccc(-c2nc3sc(-c4ccc5c(c4)OCO5)nn3c2Br)cc1
inactive: [4] 100 % of control | [5] 100 % of control | dose: 240.0 mg/kg/injection, schedule: Q01DX005 (ip), vehicle: saline with Tween-80 93 % of control

O=[N+]([O-])c1ccc(Sc2ncnc3nc[nH]c23)c2nonc12
inactive: dose: 0.78 mg/kg/injection, schedule: Q01DX009 (ip), vehicle: Klucel (hydroxypropylcellulose) (HPC) 105 % of control | dose: 1.56 mg/kg/injection, schedule: Q01DX009 (ip), vehicle: Klucel (hydroxypropylcellulose) (HPC) 109 % of control and 86 % of control | dose: 3.12 mg/kg/injection, schedule: Q01DX009 (ip), vehicle: Klucel (hydroxypropylcellulose) (HPC) 99 % of control and 104 % of control | dose: 6.25 mg/kg/injection, schedule: Q01DX009 (ip), vehicle: Klucel (hydroxypropylcellulose) (HPC) 105 % of control and 98 % of control | dose: 12.5 mg/kg/injection, schedule: Q01DX009 (ip), vehicle: Klucel (hydroxypropylcellulose) (HPC) 113 % of control and 116 % of control and 122 % of control | dose: 25.0 mg/kg/injection, schedule: Q01DX009 (ip), vehicle: Klucel (hydroxypropylcellulose) (HPC) 112 % of control

CC(=O)Nc1ccc(C(=O)O)c(O)c1.CC(=O)Nc1ccc(C(=O)O)c(O)c1.[Cu]
inactive: dose: 6.25 mg/kg/injection, schedule: Q01DX001 (ip), vehicle: saline 98 % of control | dose: 12.5 mg/kg/injection, schedule: Q01DX001 (ip), vehicle: saline 97 % of control | dose: 25.0 mg/kg/injection, schedule: Q01DX001 (ip), vehicle: saline 94 % of control

COc1ccc2c(c1)[nH]c1c(C)c3ccncc3c(C)c12
inactive: dose: 18.75 mg/kg/injection, schedule: Q04DX002 (ip), vehicle: Klucel (hydroxypropylcellulose) (HPC) 95 % of control | dose: 37.5 mg/kg/injection, schedule: Q04DX002 (ip), vehicle: Klucel (hydroxypropylcellulose) (HPC) 92 % of control | dose: 75.0 mg/kg/injection, schedule: Q04DX002 (ip), vehicle: Klucel (hydroxypropylcellulose) (HPC) 90 % of control | dose: 150.0 mg/kg/injection, schedule: Q04DX002 (ip), vehicle: Klucel (hydroxypropylcellulose) (HPC) 100 % of control

CC1(C)S[C@@H]2[C@H](NC(=O)C3(N)CCCCC3)C(=O)N2[C@H]1C(=O)O
inactive: [6] 103 % of control | [7] 103 % of control | [8] 102 % of control

COc1cccc2c1C(=O)c1c(O)c3c(c(O)c1C2=O)CC1(O)CC3OC1(C)OC (stereo not drawn)
inactive: dose: 1.56 mg/kg/injection, schedule: Q01DX009 (ip), vehicle: other 104 % of control | dose: 3.13 mg/kg/injection, schedule: Q01DX009 (ip), vehicle: other 100 % of control | dose: 6.25 mg/kg/injection, schedule: Q01DX009 (ip), vehicle: other 96 % of control | dose: 12.5 mg/kg/injection, schedule: Q01DX009 (ip), vehicle: other 106 % of control | [9] 106 % of control | dose: 25.0 mg/kg/injection, schedule: Q04DX003 (ip), vehicle: water 101 % of control | dose: 50.0 mg/kg/injection, schedule: Q04DX003 (ip), vehicle: water 100 % of control | dose: 100.0 mg/kg/injection, schedule: Q04DX003 (ip), vehicle: water 100 % of control | dose: 200.0 mg/kg/injection, schedule: Q04DX003 (ip), vehicle: water 103 % of control | dose: 400.0 mg/kg/injection, schedule: Q04DX003 (ip), vehicle: water 99 % of control

CCOC(=O)C1Cc2c(n(C3CCCCC3)c(=O)n(C)c2=O)OC1c1ccccc1 (stereo not drawn)
inactive: [6] 100 % of control | [7] 96 % of control | [8] 90 % of control

CCCCCCCCCCCCCCCCOc1ccc(/C=N/Nc2ccccc2)cc1OC
inactive: [10] 88 % of control | [11] 93 % of control

CN(C)c1nc(N/N=C\C(O)C(O)C(O)C(O)CO)nc(N(C)C)n1 (stereo not drawn)
inactive: [12] 112 % of control | [13] 103 % of control | [14] 102 % of control

Cc1cccc(Cl)c1NC(=O)NCCCN1CCCCC1C (stereo not drawn)
inactive: [4] 94 % of control | [5] 87 % of control

CC(=O)CCC(=O)c1ccoc1
inactive: dose: 3.12 mg/kg/injection, schedule: Q01DX005 (ip), vehicle: Klucel (hydroxypropylcellulose) (HPC) 94 % of control | dose: 6.25 mg/kg/injection, schedule: Q01DX005 (ip), vehicle: Klucel (hydroxypropylcellulose) (HPC) 103 % of control | dose: 12.5 mg/kg/injection, schedule: Q01DX005 (ip), vehicle: Klucel (hydroxypropylcellulose) (HPC) 100 % of control | dose: 25.0 mg/kg/injection, schedule: Q01DX005 (ip), vehicle: Klucel (hydroxypropylcellulose) (HPC) 102 % of control and 95 % of control

CCOC(=O)C(C)c1nnc(-c2ccc(OC)cc2)[nH]c1=O (stereo not drawn)
inactive: [15] 94 % of control | [16] 97 % of control | [17] 99 % of control

O=[N+]([O-])c1cccc(Cl)c1C(Nc1nncs1)Nc1nncs1
inactive: [1] 96 % of control | [2] 106 % of control | [3] 118 % of control

CC(N)C(=O)O (stereo not drawn)
inactive: dose: 50.0 mg/kg/injection, schedule: Q01DX009 (ip), vehicle: saline 115 % of control | dose: 100.0 mg/kg/injection, schedule: Q01DX009 (ip), vehicle: saline 105 % of control | dose: 200.0 mg/kg/injection, schedule: Q01DX009 (ip), vehicle: saline 106 % of control

COc1ccc(C(=O)c2ccccc2)cc1OC
inactive: [18] 100 % of control | [10] 100 % of control | [11] 98 % of control | dose: 200.0 mg/kg/injection, schedule: Q01DX009 (ip), vehicle: saline with Tween-80 98 % of control

Cc1cc(N=Nc2ccc(O)cc2C(=O)O)c([N+](=O)[O-])cc1C
inactive: [15] 101 % of control | [16] 111 % of control | [17] 104 % of control

O=C(c1cc2c(cc1[N+](=O)[O-])OCO2)N1CCc2ccccc21
inactive: dose: 3.13 mg/kg/injection, schedule: Q01DX009 (ip), vehicle: saline with Tween-80 99 % of control | dose: 6.25 mg/kg/injection, schedule: Q01DX009 (ip), vehicle: saline with Tween-80 99 % of control | dose: 12.5 mg/kg/injection, schedule: Q01DX009 (ip), vehicle: saline with Tween-80 96 % of control | [9] 99 % of control | [18] 94 % of control | dose: 50.0 mg/kg/injection, schedule: Q01DX009 (ip), vehicle: other 100 % of control | dose: 100.0 mg/kg/injection, schedule: Q01DX009 (ip), vehicle: other 107 % of control | [19] 89 % of control

Cc1cc(Cl)c2ccccc2c1N
inactive: [12] 100 % of control | [19] 105 % of control | [13] 95 % of control | dose: 400.0 mg/kg/injection, schedule: Q01DX009 (ip), vehicle: other 90 % of control | [14] 100 % of control
